Data published in US20030180827A1, “Highly sensitive and continuous protein tyrosine phosphatase test using 6,8-difluoro-4-methylumbelliferyl phosphate” (Aventis Pharma Deutschland Gmbh., priority 2002, published 2003).

Assays:
Format in all cases: biochemical
PTP1B [1] = molecular target: T1, PTP1B (Homo sapiens, UniProt P18031); experiment: malachite green phosphopeptide test; conditions: malachite green phosphopeptide test method, for comparison
T1 sequence (P18031 1-435): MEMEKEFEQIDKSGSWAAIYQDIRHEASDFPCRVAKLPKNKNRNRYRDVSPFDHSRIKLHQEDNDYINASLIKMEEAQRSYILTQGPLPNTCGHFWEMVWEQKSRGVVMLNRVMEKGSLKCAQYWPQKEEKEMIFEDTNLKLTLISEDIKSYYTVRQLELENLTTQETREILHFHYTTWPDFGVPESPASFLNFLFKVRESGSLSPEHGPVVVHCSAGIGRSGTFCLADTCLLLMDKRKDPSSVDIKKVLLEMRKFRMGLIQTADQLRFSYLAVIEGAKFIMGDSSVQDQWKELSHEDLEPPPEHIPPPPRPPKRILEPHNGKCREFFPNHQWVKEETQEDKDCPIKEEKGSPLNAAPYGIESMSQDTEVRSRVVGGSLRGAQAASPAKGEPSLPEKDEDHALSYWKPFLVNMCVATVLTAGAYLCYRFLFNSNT
Excerpt: The malachite green phosphopeptide test has been described as another method for measuring the activity of protein tyrosine phosphatases. Martin et al. (1985) Journal of Biological Chemistry, 260, pp. 14932 and Harder et al. (1994) Biochemical Journal, 298, pp. 395. In this method, the inorganic phosphate which the phosphatase has released from its substrate peptide is detected photometrically using the malachite green reagent. […]
The test for determining the inhibitory effect of the active compound 2,2-dioxo-2,3dihydro-2,6-benzo[1,2,3]oxathiazol-5-yl)-(9-ethyl-9H-carbazol-3-ylmethyl)amine using the DiFMUP test takes place in a black microtiter plate at a temperature of 37° C. […] The phosphatase reaction is started by adding 15 μl of 1 mM DiFMUP solution and the fluorescence (measured in RFU) is measured, at time intervals of 30 seconds and over a period of 15 minutes, in a fluorescence microtiter plate photometer at 358/455 nm. The measure of the enzyme activity is the increase in fluorescence, which can be depicted graphically (FIG. 1). […] The inhibitor concentration at which the active compound 2,2-dioxo-2,3-dihydro-2,6-benzo[1,2,3]oxathiazol-5-yl)-(9-ethyl-9H-carbazol-3-ylmethyl)amine reduces the activity of the PTP1B by half (IC-50) can be determined to be 3.8 μM. The IC-50 values using the pNPP test method and the malachite green phosphopeptide test were determined for comparison. […]

[2] = molecular target: T2, protein tyrosine phosphatase PTP1B (Homo sapiens, UniProt P18031); experiment: DiFMUP test, inhibition of PTP1B; conditions: DiFMUP substrate, 100 ng PTP1B/ml, pH 6.9, 37° C.; read-out: inhibitor concentration that reduces the activity of the PTP1B by half (IC-50)
T2 sequence (P18031 1-435): T1 sequence (P18031 1-435)
Protocol: The test for determining the inhibitory effect of the active compound 2,2-dioxo-2,3dihydro-2,6-benzo[1,2,3]oxathiazol-5-yl)-(9-ethyl-9H-carbazol-3-ylmethyl)amine using the DiFMUP test takes place in a black microtiter plate at a temperature of 37° C. 120 μl volumes of reaction buffer are provided, with the buffer containing the following components: 100 ng of protein tyrosine phosphatase PTP1B/ml; 50 mM Hepes, pH 6.9; 150 mM NaCl; 1 mM EDTA; 2 mM DTT. To this are added 15 μl of the inhibitor solution to be tested, at a variety of concentrations. The phosphatase reaction is started by adding 15 μl of 1 mM DiFMUP solution and the fluorescence (measured in RFU) is measured, at time intervals of 30 seconds and over a period of 15 minutes, in a fluorescence microtiter plate photometer at 358/455 nm. The measure of the enzyme activity is the increase in fluorescence, which can be depicted graphically (FIG. 1). The reduction in enzymic activity which is obtained depends on the concentration of inhibitor employed. The inhibitor concentration at which the active compound 2,2-dioxo-2,3-dihydro-2,6-benzo[1,2,3]oxathiazol-5-yl)-(9-ethyl-9H-carbazol-3-ylmethyl)amine reduces the activity of the PTP1B by half (IC-50) can be determined to be 3.8 μM. The IC-50 values using the pNPP test method and the malachite green phosphopeptide test were determined for comparison. […]

PTP1B [3] = molecular target: T1, PTP1B; experiment: pNPP test method; conditions: for comparison
Excerpt: The prior art discloses methods for measuring the activity of a protein tyrosine phosphatase using the substrate p-nitrophenyl phosphate (“p-NPP”). These methods are to be found in standard biochemical manuals such as Current Protocols in Protein Science: John E. Coligan (ed.), Ben M. Dunn (ed.), Hidde L. Ploegh (ed.), David W. Speicher (ed.), Paul T. Wingfield (ed.); SBN: 0-471-11184-8; loose-leaf pages, continuously updated; published by John Wiley & Sons. In these methods, the action of a phosphatase forms p-nitrophenol from the p-NPP. The p-nitrophenol thus produced can be measured photometrically on the basis of its intense yellow color in the alkaline range.
However, this test method has some unfavorable features. […] The increase in the pH leads to the color of the resulting p-nitrophenol changing to yellow, the absorption of which is determined photometrically and is a measure of the quantity of p-nitrophenol which is present. […]
The test for determining the inhibitory effect of the active compound 2,2-dioxo-2,3dihydro-2,6-benzo[1,2,3]oxathiazol-5-yl)-(9-ethyl-9H-carbazol-3-ylmethyl)amine using the DiFMUP test takes place in a black microtiter plate at a temperature of 37° C. […] The measure of the enzyme activity is the increase in fluorescence, which can be depicted graphically (FIG. 1). […]

[4] = molecular target: T2, protein tyrosine phosphatase PTP1B; experiment: Concentration dependence of the cleavage of DiFMUP by PTP1B (Lineweaver-Burk analysis); conditions: DiFMUP as substrate 0-200 μM, 100 ng PTP1b/ml, pH 6.9, 37° C.
Protocol: The reaction takes place in a black microtiter plate at a temperature of 37° C. 135 μl of reaction buffer are provided in each case, with this buffer containing the following components: 100 ng of protein tyrosine phosphatase PTP1b/ml; 50 mM Hepes, pH 6.9; 150 mM NaCl; 1 mM EDTA; 2 mM DTT. The phosphatase reaction is started by adding 15 μl of DiFMUP solution, which contains the substrate at 10 times the final concentration which is desired in the test mixture (FIG. 2: 0-200 μM), and the fluorescence is measured, at time intervals of 30 seconds for a period of 15 minutes, in a fluorescence microtiter plate photometer at 358/455 nm. The measure of the enzyme activity is the increase in fluorescence (measured in RFU) in dependence on the DiFMUP concentration, which can be depicted graphically (FIG. 2). This graph can subsequently be used to determine the kinetic constants of the enzyme reaction by means of a Lineweaver-Burk analysis. […] This analysis can also be carried out in an analogous manner for other tyrosine phosphatases.

IC50 (PTP1B [1]) [µM] | IC50 [2] [µM] | IC50 (PTP1B [3]) [µM] | Km [4] [µM] | Vmax [4] [RFU sec-1 mg-1] | SMILES
3.9 | 3.8 | 5.1 | – | – | CCn1c2ccccc2c2cc(CNc3ccc4c(c3)NS(=O)(=O)O4)ccc21 [2,2-dioxo-2,3-dihydro-2,6-benzo[1,2,3]oxathiazol-5-yl)-(9-ethyl-9H-carbazol-3-ylmethyl)amine]
– | – | – | 19 | 388000 | Cc1cc(=O)oc2c(F)c(OP(=O)(O)O)c(F)cc12 [DiFMUP, 6,8-difluoro-4-methylumbelliferyl phosphate]
